Reference: patent publication US20160214941A1, “Compounds for lnhibition of Unregulated Cell Growth” (GODAVARI BIOREFINERIES LIMITED, priority 2013, published 2016)

How the values were obtained:
Format in all cases: cell-based
MDA MB 231 cell line = experiment: In vitro 3D sphere forming stem cell assay
Experimental: In Vitro 3D Sphere Forming Stem Cell Assay Compounds of Formula III & IV were evaluated in an in vitro 3D sphere forming stem cell assay as described by Rajasekhar, V K, Analytical Methods for Cancer Stem Cells. Methods in Molecular Biology, 2007, Volume 407, 83-95.
An exemplary procedure for the in vitro 3D sphere forming stem cell assay is described as follows. Breast Cancer Cells were grown in two dimensions on a plastic substrate, harvested in suspension in serum-free media, then the cells in the sample were trypsinized and a single cell suspension was formed by passing through a cell strainer. The cells were diluted according to the predetermined plating efficiency for the cell line being studied by suspending the cells in stem cell culture medium. 100 uL of this suspension was added into each well of a 96 well suspension plate, and the plate was incubated at 37° C. in 5% CO2 atmosphere for 24 hours, then 2 uL of appropriate concentrations of the drugs was added into each respective well along with 100 uL of stem cell culture medium, and the plates incubated at 37° C. under 5% CO2 atmosphere for 72 hours. 2.5 uL of the appropriate drug concentration (Formula III and Formula IV) of was then added to each respective well along with 50 uL of stem cell culture medium, then the plates incubated at 37° C. under 5% CO2 atmosphere for 72 hours. 3 uL of the appropriate drug concentration was added to each respective well along with 50 uL of stem cell culture medium, then incubated at 37° C. under 5% CO2 atmosphere for 72 hours, the spheres formed were observed under a microscope then counted and scored by size.
The number in each box is the total number of spheres formed in the presence of either cisplatin, compound of Formula III or compound of Formula IV at each drug concentration. GC refers to a growth control performed in the absence of drug or solvent (DMSO). GCD refers to a growth control performed in the absence of drug, but in the presence of DMSO.

Colo205 = experiment: In vitro colorimetric cell death assay (MTT assay); details: Colo205 (colon cancer), 48 hours
Experimental: (§1) MTT assay was carried for assessing cell viability where the cells were grown in two-dimensional surface. The procedure for the assay is as follows. Cancer cells were plated in 96 well plates as per predetermined plating efficiency. The plates were incubated for 24 hours in a 5% CO2 atmosphere at 37° C., a range of concentrations of the compound of the present invention was added to the wells, the plates were incubated further for 48 hours in a 5% CO2 atmosphere, the plates were centrifuged twice at 3000 rpm for 3 minutes, the supernatant fluid was discarded, 100 uL of 0.5 mg/mL MIT solution was added and the plates were incubated for 4 hours in a 5% CO2 atmosphere at 37° C. The plates were then centrifuged twice at 3000 rpm for 3 minutes, supernatant was aspirated very carefully, 200 uL DMSO was added to each well to solubilize MTT crystals and mixed well by shaking the plates, the plates were incubated for 10 minutes in a 5% CO2 atmosphere at 37° C., the plates were placed on the shaker of an ELISA plate reader and the absorbance at 570 nm was measured, then the percentage of viable cells remaining was calculated by first subtracting the background absorbance then comparing to the absorbance of a non-drug-treated cell sample, and the results were plotted on a graph to determine the IC50 for the compound as known in the art. The reference drug used was Cisplatin.

Colo320 = experiment: In vitro colorimetric cell death assay (MTT assay); details: Colo320 (colon cancer), 48 hours
Experimental: as §1

HCT-15 [1] = experiment: In vitro colorimetric cell death assay (MTT assay); details: HCT-15 (colon cancer), 48 hours
Experimental: as §1

Hep3B = experiment: In vitro colorimetric cell death assay (MTT assay); details: Hep3B (hepatic cancer), 48 hours
Experimental: as §1

L929 [2] = experiment: In vitro colorimetric cell death assay (MTT assay); details: L929 (fibroblast), 48 hours
Experimental: as §1

LnCaP [3] = experiment: In vitro colorimetric cell death assay (MTT assay); details: LnCaP (prostate cancer), 48 hours
Experimental: as §1

NCIH23 = experiment: In vitro colorimetric cell death assay (MTT assay); details: NCIH23 (lung cancer), 48 hours
Experimental: as §1

SiHa [4] = experiment: In vitro colorimetric cell death assay (MTT assay); details: SiHa (cervical cancer), 48 hours
Experimental: as §1

T47D [5] = experiment: In vitro colorimetric cell death assay (MTT assay); details: T47D (breast cancer), 48 hours
Experimental: as §1

DU145 = experiment: In vitro soft agar colony forming growth assay; details: DU145, one week
Experimental: (§2) Compounds of Formula IV were evaluated in an in vitro soft agar colony forming growth inhibition assay as described by Lieber, M M, and Kovach, J S. Soft agar colony formation assay for chemotherapeutic sensitivity of human solid tumors. Mayo Clin Proc 1982; 57: 527-528 and Tanigawa, N, Kern, D H, Kikasa, Y, and Morton, D L. Rapid assay for evaluating the chemosensitivity of human tumors in soft agar culture. Cancer Res 1982; 42: 2159-2164.
(§3) An exemplary procedure for the in vitro soft agar colony forming growth inhibition assay is as follows.

HCT-15 [6] = experiment: In vitro soft agar colony forming growth assay; details: HCT-15, one week
Experimental: as §2, §3

L929 [7] = experiment: In vitro soft agar colony forming growth assay; details: L929, one week
Experimental: as §2, §3

LnCaP [8] = experiment: In vitro soft agar colony forming growth assay; details: one week
Experimental: as §2, §3

PC3 = experiment: In vitro soft agar colony forming growth assay; details: PC3, one week
Experimental: as §2, §3

SiHa [9] = experiment: In vitro soft agar colony forming growth assay; details: one week
Experimental: as §2, §3

T47D [10] = experiment: In vitro soft agar colony forming growth assay; details: one week
Experimental: as §2, §3

[11] = system: PC3 (Prostrate Cancer) cells; experiment: CD44 and CD24 expression on PC3 cells by Flow Cytometry; details: 48 hours
Experimental: A study was conducted to determine the effect of compound of Formula IV and Cisplatin on CD44 and CD24 expression on PC3 (Prostrate Cancer) cells by Flow Cytometry. PC3 cells (0.35×106) were cultured in R.P.M.I (Roswell Park Memorial Institute Medium)-1640 cell culture medium with 10% F.B.S (Fetal Bovine Serum) on 60 mm TC (Tissue Culture) plates. Cells were exposed to IC10 drug concentration of Cisplatin & IC10 drug concentration of compound of Formula IV in duplicates. Similarly other sets were exposed to IC25 drug concentration of Cisplatin & compound of Formula IV in duplicates. IC10 and IC25 drug concentrations were calculated as per MTT results. All the sets were incubated at 37° C., 5% CO2 for 48 hours. After 48 hours, cells were observed under the microscope. Cells were trypsinised, washed with D.P.B.S. (Dulbecco's Phosphate Buffered Saline) and 50 μL of cells were taken for each set and 5 μL of each of CD24 and CD44 antibodies were added. CD24-FITC (Fluorescein isothiocyanate) labeled & CD44-PE (Phycoerythrin) labeled was used for the study. The sets were incubated for 45 minutes at 4° C. in dark for proper binding of antibodies. After incubation the cells were washed with 200 μL of D.P.B.S., supernatant was discarded and the cells were finally suspended in 300 μL of FACS buffer (4% F.B.S in D.P.B.S.). […]

## COc1ccc(/C=C/C(=O)c2cccc(Nc3c4ccc(Cl)cc4nc4ccc(OC)cc34)c2)cc1 [Formula III, 1-(3-(6-chloro-2-methoxyacridin-9-ylamino)phenyl)-3-(4-methoxyphenyl)prop-2-en-1-one]
MDA MB 231 cell line; MDA MB 231
  sphere reduction as compared to standard drug Cisplatin: Significant sphere reduction
MDA MB 231 cell line; MDAMB 231, 1.1 uM
  # of 3D Spheres Formed (±SD): 15(±2)
MDA MB 231 cell line; MDAMB 231, 11 uM
  # of 3D Spheres Formed (±SD): 0(±0)
MDA MB 231 cell line; MDAMB 231, 110 uM
  # of 3D Spheres Formed (±SD): 0(±0)

## N.N.[Cl][Pt][Cl] [Cisplatin]
Colo205
  IC50: 44.3 µM
Colo320
  IC50: 38.3 µM
HCT-15 [1]
  IC50: 49.1 µM
Hep3B
  IC50: 37.6 µM
L929 [2]
  IC50: 38 µM
LnCaP [3]
  IC50: 38.4 µM
NCIH23
  IC50: 45.7 µM
SiHa [4]
  IC50: 43.2 µM
T47D [5]
  IC50: 95.5 µM
MDA MB 231 cell line; MDAMB 231, 1.1 uM
  # of 3D Spheres Formed (±SD): 35(±4)
MDA MB 231 cell line; MDAMB 231, 11 uM
  # of 3D Spheres Formed (±SD): 24(±2)
MDA MB 231 cell line; MDAMB 231, 110 uM
  # of 3D Spheres Formed (±SD): 16(±2)
DU145
  IC50: 33.1 µM
HCT-15 [6]
  IC50: 40 µM
L929 [7]
  IC50: 9.44 µM
LnCaP [8]
  IC50: 31.6 µM
PC3
  IC50: 52.5 µM
SiHa [9]
  IC50: 19.5 µM
T47D [10]
  IC50: 39.8 µM
[11]; IC10 drug concentration
  effect on cell / CD44 population: most of the cells remain unaffected
[11]; IC25 drug concentration
  effect on CD44 cell population: good number of CD44 cell population surviving
